Where a name gives a salt, the structure may show the parent alone. Where a SMILES comes first, the peptide text is derived from it. [ ]: non-standard residue; d: D form. The star is where a group is joined. X2 = CCC(C)(C)NCCN(CCNC(C)(C)/C(C)=N/O)CCN*; Tyr(3-I) = N[C@@H](Cc1ccc(O)c(I)c1)C(=O)O

The nature of the first data set: in vitro. The note with it: PAMPA, PAMPA-BBB Pe(10^-6 cm/sec). On the technique in general: PAMPA measures passive passage across an artificial lipid membrane.
Turning to `COc1cc(/C=C/C(N)=O)cc(OC)c1OC` [CINTRIAMIDE], the Papp is 2.3 ×10⁻⁶ cm/s.
The compound `O=C(O)c1cccc(C(=O)O)n1` [D[…]] returned a Papp of less than 1 ×10⁻⁶ cm/s.
For the compound `C[C@]12C=CC(=O)C=C1[C@@H](F)C[C@@H]1[C@@H]2[C@@H](O)C[C@@]2(C)[C@H]1CC[C@]2(O)C(=O)CO` [FLUPREDNISOLONE], the apparent permeability coefficient (Papp) is 1.9 ×10⁻⁶ cm/s.
Same read-out and setting: the same measure for `Nc1c(O)cccc1C(=O)CC(N)C(=O)O` (stereo not shown) [3-HYDROXYKYNURENINE]: less than 1 ×10⁻⁶ cm/s; for `C/C(=C\C(=O)OCCCCCCCCC(=O)O)C[C@@H]1OC[C@H](C[C@@H]2O[C@H]2[C@@H](C)[C@H](C)O)[C@@H](O)[C@H]1O` [MUPIROCIN]: less than 1 ×10⁻⁶ cm/s.
Same read-out and setting: the same measure for `O=C(O)c1cccnc1` [NICOTINIC ACID]: less than 1 ×10⁻⁶ cm/s.

The same data set, now with this note: PAMPA, PAMPA-BBB Pe(10^-6 cm/sec), Table S3: compounds exhibiting low PAMPA-BBB permeability.
As for `N[C@@H](Cn1ccc(=O)[nH]c1=O)C(=O)O` [WILLARDIINE], the apparent permeability coefficient (Papp) was less than 1 ×10⁻⁶ cm/s.
The same measure, in the same setting: under `O=c1ccc2ccc(O)c(O)c2o1` [DAPHNETIN] stands 3.8 ×10⁻⁶ cm/s; under `CC(C)(COP(=O)(O)OP(=O)(O)OC[C@H]1O[C@@H](n2cnc3c(N)ncnc32)[C@H](O)[C@@H]1OP(=O)(O)O)[C@@H](O)C(=O)NCCC(=O)NCCS` [COENZYME A], less than 1 ×10⁻⁶ cm/s; under `O=C(O[C@@H]1Cc2c(O)cc(O)cc2O[C@@H]1c1cc(O)c(=O)c2c(O)c(O)cc([C@H]3Oc4cc(O)cc(O)c4C[C@H]3O)c2c1)c1cc(O)c(O)c(O)c1` [THEAFLAVIN MONOGALLATE], less than 1 ×10⁻⁶ cm/s.
The same measure, in the same setting: the same measure for `O=C(O)/C=C/c1ccc2c(c1)OCO2` [3,4-METHYLENEDIOXYCINNAMIC ACID]: less than 1 ×10⁻⁶ cm/s; for `CC(=O)OCC1=C(C(=O)O)N2C(=O)C(N)C2SC1` (stereo not shown) [7-Aminocephalosporanic acid]: less than 1 ×10⁻⁶ cm/s.
The same measure, in the same setting: the same measure for `CO[C@@H]1[C@H](O)C[C@@H](O[C@@H]2C[C@H](Oc3cc4cc5c(c(O)c4c(O)c3C)C(=O)[C@@H](O[C@H]3C[C@@H](O[C@H]4C[C@@H](O[C@H]6C[C@](C)(O)[C@@H](OC(C)=O)[C@H](C)O6)[C@H](O)[C@@H](C)O4)[C@H](O)[C@@H](C)O3)[C@H]([C@H](OC)C(=O)[C@@H](O)[C@@H](C)O)C5)O[C@H](C)[C@@H]2OC(C)=O)O[C@@H]1C` [CHROMOMYCIN A3]: less than 1 ×10⁻⁶ cm/s.
Turning to `C[C@@H]1NCCc2cc(O)c(O)cc21` [SALSOLINOL], the Papp is less than 1 ×10⁻⁶ cm/s.
Still for that read-out and setting: under `O=C1C=CC(=O)c2c(O)cccc21` [JUGLONE] stands 4.1 ×10⁻⁶ cm/s.
With `O=c1ccn([C@@H]2O[C@H](COP(=O)(O)OP(=O)(O)O)[C@@H](O)[C@H]2O)c(=O)[nH]1` [Uridine diphosphate disodium], the apparent permeability coefficient (Papp) was less than 1 ×10⁻⁶ cm/s.
Compound `C[C@@H]1C/C=C/C=C/C=C/C=C/[C@H](O[C@@H]2O[C@H](C)[C@@H](O)[C@H](N)[C@@H]2O)C[C@@H]2O[C@](O)(C[C@@H](O)C[C@H]3O[C@@H]3/C=C/C(=O)O1)C[C@H](O)[C@H]2C(=O)O` [NATAMYCIN] displayed an apparent permeability (Papp) of 5.7 ×10⁻⁶ cm/s.
`C[C@H]1O[C@@H](Oc2c(-c3ccc(O)c(O)c3)oc3cc(O)cc(O)c3c2=O)[C@H](O)[C@H](O)[C@H]1O` [QUERCITROSIDE]: the Papp was less than 1 ×10⁻⁶ cm/s.
On the same count and under the same terms, under `CC(=O)c1ccc(O[C@@H]2O[C@H](CO)[C@@H](O)[C@H](O)[C@H]2O)cc1` [PICEIN] stands less than 1 ×10⁻⁶ cm/s; under `CNCCc1ccc(O)c(O)c1` [DEOXYEPINEPHRINE HYDROCHLORIDE], less than 1 ×10⁻⁶ cm/s; under `COc1cc(C(O)CN)ccc1O` (stereo not shown) [NORMETADRENALINE HYDROCHLORIDE], less than 1 ×10⁻⁶ cm/s.
The same measure, in the same setting: under `Cc1cccc2c3c(ccc12)C1=C(C(=O)C3=O)[C@@H](C)CO1` [DIHYDROTANSHINONE I] stands 3.7 ×10⁻⁶ cm/s.
For the compound `O=C(/C=C/c1ccc(O)c(O)c1)c1ccc(O)cc1O` [BUTEIN], the Papp was less than 1 ×10⁻⁶ cm/s.
On the same count and under the same terms, under `COc1cc(OC)c(C(C)=O)c(O)c1C` [METHYLXANTHOXYLINE] stands less than 1 ×10⁻⁶ cm/s.
Same read-out and setting: the same measure for `CC1=C(O)C(=O)[C@@H]2O[C@@H]2C1=O` [TERREIC ACID]: 6.8 ×10⁻⁶ cm/s; for `Cc1cc(O)c(C=O)c2c1C(=O)Oc1c(C)c(O)c3c(c1O2)C(O)OC3=O` (stereo not shown) [Norstictic acid]: 2 ×10⁻⁶ cm/s; for `O=C(O)c1cc(O)c2c(c1)[C@@H]([C@H]1c3cc(C(=O)O)cc(O)c3C(=O)c3c(O[C@@H]4O[C@H](CO)[C@@H](O)[C@H](O)[C@H]4O)cccc31)c1cccc(O[C@@H]3O[C@H](CO)[C@@H](O)[C@H](O)[C@H]3O)c1C2=O` [SENNOSIDE B]: 3 ×10⁻⁶ cm/s.
The same measure, in the same setting: under `O=c1c(O)c(-c2ccccc2O)oc2cc(O)cc(O)c12` [DATISCETIN] stands 2.2 ×10⁻⁶ cm/s; under `O=C(O)c1ccc(O)c(O)c1` [PROT[…]], less than 1 ×10⁻⁶ cm/s.
`NC(Cc1cc(O)c(O)cc1O)C(=O)O` (racemic) [2,4,5-TRIHYDROXY-DL-PHENYLALANINE] came in with a Papp of 9.3 ×10⁻⁶ cm/s.
`Cc1cc(O)c(C=O)c2c1C(=O)Oc1c(COC(=O)/C=C/C(=O)O)c(O)c(C(=O)O)c(C)c1O2` [FUMARPRO[…]]: the Papp is less than 1 ×10⁻⁶ cm/s.
Same read-out and setting: under `C[C@@H]1O[C@@H](OC[C@H]2O[C@@H](Oc3c(-c4ccc(O)c(O)c4)oc4cc(O)cc(O)c4c3=O)[C@H](O)[C@@H](O)[C@@H]2O)[C@H](O)[C@H](O)[C@H]1O` [RUTIN] stands less than 1 ×10⁻⁶ cm/s; under `Oc1cc(O)cc(/C=C/c2ccc(O)c(O)c2)c1` [[…]], 1 ×10⁻⁶ cm/s.
The same measure, in the same setting: the same measure for `COC(=O)C1=CO[C@@H](O)[C@@H]2C(CO)=CC[C@H]12` [GENIPIN]: less than 1 ×10⁻⁶ cm/s.

Still in this data set, the particulars now being: PAMPA, PAMPA-BBB Pe, Table S2: compounds exhibiting moderate to high PAMPA-BBB permeability.
`CCc1ccc(O)c(OC)c1` [4-ETHYLGUAIACOL] displayed a Papp of 116 ×10⁻⁶ cm/s.
Regarding `Cn1cnc2c(NCc3ccccc3)nc(NCCO)nc21` [OLOMOUCINE], the apparent permeability coefficient (Papp) is 10 ×10⁻⁶ cm/s. Against the preceding compound, the Papp is about 12-fold lower.
Still for that read-out and setting: the same measure for `Cn1cccc1-c1cccnc1` [NICOTYRINE]: 102 ×10⁻⁶ cm/s; for `C[C@]12CCC(=O)C=C1CC[C@@H]1[C@@H]2C(=O)C[C@]2(C)C(=O)CC[C@@H]12` [ADRENOSTERONE]: 41 ×10⁻⁶ cm/s.
Still for that read-out and setting: the same measure for `C=C[C@H]1CN2CC[C@@]3(C(=O)Nc4ccccc43)[C@@H]2C[C@@H]1/C(=C\OC)C(=O)OC` [ISOCORYNOXEINE]: 37 ×10⁻⁶ cm/s; for `COc1ccc2c(c1O)-c1c(OC)c(OC)cc3c1[C@H](C2)N(C)CC3` [ISOCORYDINE]: 74 ×10⁻⁶ cm/s.
The same measure, in the same setting: under `O=c1ccc2ccccc2o1` [COUMARIN] stands 74 ×10⁻⁶ cm/s; under `CC1(C)C2=CCCC(C)(C)[C@]23CC[C@H]1C3` [ISOLONGIFOLENE], 87 ×10⁻⁶ cm/s.
In turn, `COc1cc(CCC(C)=O)ccc1O` [ZINGERONE] displayed an apparent permeability coefficient (Papp) of 23 ×10⁻⁶ cm/s.
On the same count and under the same terms, the same measure for `COC(=O)c1ccccc1OC` [METHYL O-ANISATE]: 120 ×10⁻⁶ cm/s; for `COc1ccc(-c2cc(=O)c3c(O)c(OC)c(OC)cc3o2)cc1O` [EUPATORIN]: 281 ×10⁻⁶ cm/s; for `N[C@@H](Cc1cc(I)c(Oc2cc(I)c(O)c(I)c2)c(I)c1)C(=O)O` [LEVOTHYROXINE]: 83 ×10⁻⁶ cm/s.
On the same count and under the same terms, under `CN1CCCCC1c1ccc(-c2cccnc2)nc1` (stereo not shown) [ANABASAMINE] stands 31 ×10⁻⁶ cm/s.
Still for that read-out and setting: the same measure for `CCC(C)(C)NCCN(CCNC(=O)CNC(=O)[C@H](CCCCN)NC(=O)[C@H](CC(C)C)NC(=O)[C@H](CC(C)C)NC(=O)[C@@H](NC(=O)[C@H](Cc1ccc(O)c(I)c1)NC(=O)[C@@H]1CCCN1C(=O)[C@H](CO)NC(=O)[C@@H](NC(=O)[C@H](CCC(N)=O)NC(=O)[C@H](CCC(=O)O)NC(=O)[C@H](CCC(N)=O)NC(=O)[C@H](CC(N)=O)NC(C)=O)C(C)C)[C@@H](C)O)CCNC(C)(C)/C(C)=N/O` (Ac-NQEQVSP[Tyr(3-I)]TLLKG-X2): 155 ×10⁻⁶ cm/s.
In turn, `COC(=O)/C=C\C(=O)O` [[…]] came in with an apparent permeability coefficient (Papp) of 48 ×10⁻⁶ cm/s.

Broadly, the Papp is a coefficient for how fast a substance crosses the barrier. The low end stands for slow passage, the high end for fast passage.

(Values after publication PMC11876671, “Investigating blood–brain barrier penetration and neurotoxicity of natural products for central nervous system drug development” (Scientific Reports, 2025).)
